Results from patent publication US12358960B2, “Selective targeting of ubiquitin- and ubiquitin-like E1-activating enzymes by structurally-stabilized peptides” (Dana-Farber Cancer Institute, Inc., priority 2019, dated 2025).
Bridge positions count the residues as written; N and C are the ends. Square brackets hold non-standard residues; d marks the D form. Peptide text beside a SMILES is read from it. R8 = C=CCCCCCC[C@@](C)(N)C(=O)O; S5 = C=CCCC[C@](C)(N)C(=O)O; Nle = CCCC[C@H](N)C(=O)O

How the values were obtained:
native UBA1 = molecular target: T1, native UBA1 (Homo sapiens, UniProt P22314); test: Streptavidin-biotin pull-down from HeLa cell lysate, western blot for UBA1; assay type: binding; settings: biotinylated peptide
T1 construct: endogenous in cells; host or cells: HeLa cell lysate
T1 sequence (P22314 1-1058): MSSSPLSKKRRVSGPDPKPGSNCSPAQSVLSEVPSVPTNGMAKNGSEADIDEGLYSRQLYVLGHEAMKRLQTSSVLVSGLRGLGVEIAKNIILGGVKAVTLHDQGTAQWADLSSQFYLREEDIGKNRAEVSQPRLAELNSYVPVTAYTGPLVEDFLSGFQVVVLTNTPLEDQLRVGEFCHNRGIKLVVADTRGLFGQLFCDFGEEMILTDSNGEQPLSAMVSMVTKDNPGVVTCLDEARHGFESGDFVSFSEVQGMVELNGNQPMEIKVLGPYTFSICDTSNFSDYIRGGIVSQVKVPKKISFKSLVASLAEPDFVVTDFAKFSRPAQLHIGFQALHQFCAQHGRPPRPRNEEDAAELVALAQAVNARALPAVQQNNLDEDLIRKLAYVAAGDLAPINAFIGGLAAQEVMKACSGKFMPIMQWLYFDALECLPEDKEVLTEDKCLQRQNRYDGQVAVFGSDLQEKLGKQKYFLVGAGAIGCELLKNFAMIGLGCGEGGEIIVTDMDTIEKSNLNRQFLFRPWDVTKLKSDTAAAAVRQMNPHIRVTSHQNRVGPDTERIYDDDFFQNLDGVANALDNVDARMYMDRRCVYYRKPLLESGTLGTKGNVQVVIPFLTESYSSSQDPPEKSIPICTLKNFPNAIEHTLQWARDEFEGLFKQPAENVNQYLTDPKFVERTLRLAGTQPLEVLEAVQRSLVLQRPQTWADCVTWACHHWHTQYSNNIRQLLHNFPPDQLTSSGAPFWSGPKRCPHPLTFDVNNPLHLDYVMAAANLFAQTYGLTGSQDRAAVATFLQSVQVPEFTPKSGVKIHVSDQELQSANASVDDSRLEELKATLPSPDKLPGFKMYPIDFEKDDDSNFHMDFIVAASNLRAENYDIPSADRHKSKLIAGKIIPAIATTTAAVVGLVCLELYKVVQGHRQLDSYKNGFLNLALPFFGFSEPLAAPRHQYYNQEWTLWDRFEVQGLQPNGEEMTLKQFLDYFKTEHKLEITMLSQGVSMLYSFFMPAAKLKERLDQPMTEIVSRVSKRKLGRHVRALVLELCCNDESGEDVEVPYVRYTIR
Protocol: Streptavidin-biotin pull-down assays: For recombinant protein pull-downs, 10 pmol recombinant human UBA1 was incubated with 5 nmol C-terminally biotinylated SAH-UBE2A or DMSO vehicle control in a total volume of 1 mL binding buffer (50 mM NaCl, 20 mM HEPES, pH 7.4, 5 mM DTT) for 1.5 hours at 4° C. 30 μL of pre-equilibrated streptavidin agarose beads were then added and incubated for an additional 1.5 hours at 4° C. The beads were pelleted by centrifugation and washed three times with NP-40 buffer (20 mM HEPES, pH 7.4, 50 mM NaCl, 5 mM DTT, 0.5% [v/v] NP-40) before eluting the protein sample from the beads by heating at 70° C. for 10 min in 3×SDS loading buffer. Samples were subjected to electrophoresis and silver staining (Pierce 24612). […] Proteins were separated by SDS-PAGE gel electrophoresis and detected by western blot against UBE1 (Abcam ab34711). […] Conjugation of ubiquitin to E2 by E1 is monitored by conversion of free E2 (17 kDa) to E2˜ubiquitin conjugate (26 kDa). Quantitation of percent inhibition was calculated from densitometry of silver stain images. Error bars represent ±1 SEM calculated from three independent experiments.

proteinase K = proteinase K (Parengyodontium album, UniProt P06873); test: in vitro; settings: proteinase K (isolated protease) in Tris HCl buffer, pH 7.4
proteinase K, sequence (P06873 106-384): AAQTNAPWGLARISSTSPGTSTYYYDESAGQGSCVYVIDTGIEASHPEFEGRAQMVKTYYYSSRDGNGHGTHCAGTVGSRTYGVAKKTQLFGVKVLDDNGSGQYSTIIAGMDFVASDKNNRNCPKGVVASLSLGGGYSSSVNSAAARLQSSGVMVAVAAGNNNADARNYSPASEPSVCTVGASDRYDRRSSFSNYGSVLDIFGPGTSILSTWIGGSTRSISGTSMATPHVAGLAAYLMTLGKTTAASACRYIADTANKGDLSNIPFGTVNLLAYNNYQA
Protocol: Peptide Proteolysis Assay: In vitro proteolytic degradation was measured by LC/MS (Agilent 1200) using the following parameters: 20 μl injection, 0.6 mL flow rate, 20-min run time consisting of a gradient of water (0.1% formic acid) to 20%-80% acetonitrile (0.75% formic acid) over 15-min, 4-min wash to revert to starting gradient conditions, and 0.5-min post-time. The MSD set to scan mode with one channel at (M+2H)/2, ±1 mass units, one channel at (M+3H)/3, ±1 mass units, and the other at (M+4H)/4, ±1 mass units. Integration of each MSD signal yielded areas under the curve of >108 counts. Reaction samples were composed of 5 μl peptide in DMSO (1 mM stock) and 195 μl buffer consisting of 50 mM Tris HCl, pH 7.4. Upon injection of the zero time sample, 6 μl of 20 ng/μL proteinase K (New England Biolabs) was added, and the amount of intact peptide quantitated by serial injection over time. A plot of MSD area versus time yielded an exponential decay curve, and half-lives were determined by nonlinear regression analysis using Prism software (GraphPad).

CCCC[C@H](NC(C)=O)C(=O)N[C@@H](CO)C(=O)N[C@H](C(=O)N1CCC[C@H]1C(=O)N[C@]1(C)CCCCCCC=CCCC[C@@](C)(C(=O)N[C@@H](Cc2ccccc2)C(=O)N[C@@H](CCCCN)C(=O)N[C@@H](CCCNC(=N)N)C(=O)N[C@@H](CC(C)C)C(=O)N[C@@H](CCC(N)=O)C(N)=O)NC(=O)[C@H](CCCNC(=N)N)NC(=O)[C@H](CCCC)NC(=O)[C@H](CC(C)C)NC(=O)[C@H](CCCNC(=N)N)NC(=O)[C@H](CCCNC(=N)N)NC(=O)[C@H](CCCNC(=N)N)NC1=O)[C@@H](C)O [SAH-UBE2A-11, BSTPX1RRRLBRX2FKRLQ] (Ac-[Nle]STP[R8]RRRL[Nle]R[S5]FKRLQ-NH2; staple 5-12)
direct binding to native UBA1 in HeLa cell lysate (native UBA1): direct binding of SAH-UBE2A to native UBA1 | half-life at 25 µM (proteinase K): > 6 h
